We go through 4 molecules from patent publication US20240366539A1, “METHODS FOR TREATING AUTISM SPECTRUM DISORDERS” (INSTITUT NATIONAL DE LA SANTÉ ET DE LA RECHERCHE MÉDICALE, priority 2021, published 2024).

One series deals with rodent models of ASD. The note with it: preclinical studies; cited from earlier work.
Series [1] has as its system Oprm1^−/− mice. The experiment in a line: Novelty-suppressed feeding. It counts as in vivo, mouse. The note with it: chronic NaBr (since the lowest dose tested) or bumetanide. The procedure: (§1) Mice were treated with vehicle (NaCl 0.9%; ip, 10 or 20 ml/kg), NaBr (Sigma-Aldrich, Saint-Quentin Fallavier, France) administered either chronically (once a day, 10, 30, 70, 125, 250 and 500 mg/kg; i.p. or per os, in a volume of 20 ml/kg—except for combination with VU0155041: […]) or acutely (250 mg/kg, 20 ml/kg), KBr (Sigma-Aldrich, Saint-Quentin Fallavier, France; 145 mg/kg; i.p., 20 ml/kg), bumetanide (R&D systems, Minneapolis, USA, 0.5 and 2 mg/kg; i.p., 20 ml/kg) or VU0155041 (Cayman Chemicals, Ann Arbor, USA, once a day, i.p., 1 mg/kg, 10 ml/kg). […] When treatment was given chronically, behavioral testing started 8 days after beginning of daily administration. Treatment was maintained for 8 to 18 consecutive days (see timelines in FIGS. 1 and 4), allowing thorough behavioral phenotyping. On testing days, or when treatment was given acutely, drugs (or vehicle) were administered 30 min before behavioral assays.
Novelty-suppressed feeding. Novelty-suppressed feeding (NSF) was measured in 24-hr food-deprived mice, isolated in a standard housing cage for 30 min before individual testing. Three pellets of ordinary lab chow were placed on a white tissue in the center of each arena, lit at 60 lx. Each mouse was placed in a corner of an arena and allowed to explore for a maximum of 15 min. Latency to feed was measured as the time necessary to bite a food pellet. Immediately after an eating event, the mouse was transferred back to home cage (free from cage-mates) and allowed to feed on lab chow for 5 min. Food consumption in the home cage was measured.

Series [2] concerns Oprm1^−/− mice. The experiment in a line: Direct social interaction test. It counts as in vivo, mouse. The note with it: for social interaction in wild-type controls: Oprm1+/+ mice. The procedure: as §1
When assessing effects of chronic administration, experiments were performed successively (timelines in FIGS. 1 and 4) (51, 60). Testing order was chosen to minimize the incidence of anxiety on later assays. Direct social interaction and novelty suppressed feeding were performed in 4 equal square arenas (open fields, 50×50 cm) separated by 35 cm-high opaque grey Plexiglas walls over a white Plexiglas platform (View Point, Lyon, France). Stimulus mice used for the three-chamber test were 8-14-week-old grouped-housed male or female wild-type mice, socially naive to the experimental animals.
Direct social interaction test. On testing day, a pair of unfamiliar mice (not cage mates, age-, sex- and treatment-matched) was introduced in each arena for 10 min (15 lx). Each arena received a black plastic floor (transparent to infrared). […] The mean duration of nose and paw contacts was calculated from previous data (61-63).

In series [3] the test system is Oprm1^−/− mice. The experiment in a line: Motor stereotypies. Format: in vivo, mouse. The procedure: as §1
Motor stereotypies. To detect motor stereotypies in mutant versus wild-type animals, mice were individually placed in clear standard home cages (21×11×17 cm) filled with 3-cm deep fresh sawdust for 10 min (64). Light intensity was set at 30 lux. Trained experimenters scored numbers of head shakes, as well as rearing, burying, grooming, circling episodes and total time spent burying by direct observation.

The subject of the next series is patients. The note with it: cited from earlier work.
In series [4] the test system is Oprm1^−/− mice. As to the kind of experiment: Three-chamber social preference test. It counts as in vivo, mouse. The procedure: as §1
Three-chamber social preference test. The test apparatus consisted of a transparent acrylic box (exterior walls blinded with black plastic film); partitions divided the box into three equal chambers (40×20×22.5 cm). Two sliding doors (8×5 cm) allowed transitions between chambers. Cylindrical wire cages (18×9 cm, 0.5 cm diameter-rods spaced 1 cm apart) were used to contain the mouse interactor and object (soft-toy mouse). The test was performed in low-light conditions (15 lx) to minor anxiety. Stimulus wild-type mice were habituated to confinement in wire cages for 2 days before the test (20 min/day). On testing day, the experimental animal was introduced to the middle chamber and allowed to explore the whole apparatus for a 10-min habituation phase (wire cages empty) after the sliding doors were raised. The experimental mouse was then confined back in the middle-chamber while the experimenter introduced an unfamiliar wild type age and sex-matched animal into a wire cage in one of the side-chambers and a soft toy mouse (8×10 cm) in the second wire cage as a control for novelty. Then the experimental mouse was allowed to explore the apparatus for a 10-min interaction phase. The time spent in each chamber, the time spent in nose contact with each wire cage (empty: habituation; containing a mouse or a toy: interaction), as well as the number of these nose contacts were scored a posteriori on video recordings using an ethological keyboard (Labwatcher®, View Point, Lyon, France) by trained experimenters. […] The relative position of stimulus mice (versus toy) was counterbalanced between groups.

Series [5] deals with Oprm1^−/− mice. As to the kind of experiment: Marble-burying. Conditions: Oprm1−/− mice; chronic NaBr 10-500 mg/kg or bumetanide 0.5 and 2 mg/kg. Format: in vivo, mouse. Here is the method: as §1
Marble-burying. Marble burying was used as a measure of perseverative behavior (68). Mice were introduced individually in transparent cages (21×11×17 cm) containing 20 glass marbles (diameter: 1.5 cm) evenly spaced on 4-cm deep fresh sawdust. To prevent escapes, each cage was covered with a filtering lid. Light intensity in the room was set at 40 lux. The animals were removed from the cages after 15 min, and the number of marbles buried more than half in sawdust was quoted.

The subject of series [6] is Oprm1^−/− mice. The experiment in a line: Y-maze exploration. Format: in vivo, mouse. The procedure: as §1
Y-maze exploration. Spontaneous alternation behavior was used to assess perseverative behavior (65-67). Each Y-maze consisted of three connected Plexiglas arms (15×15×17 cm) covered with distinct wall patterns (15 lx). Floors were covered with lightly sprayed fresh sawdust to limit anxiety. Each mouse was placed at the center of a maze and allowed to freely explore this environment for 5 min. The pattern of entries into each arm was quoted on video-recordings. Spontaneous alternations (SPA), i.e. successive entries into each arm forming overlapping triplet sets, alternate arm returns (AAR) and same arm returns (SAR) were scored, and the percentage of SPA, AAR and SAR was calculated as following: total/(total arm entries−2)*100.

The subject of series [7] is Oprm1^−/− mice. The experiment in a line: Behavioral tests of social, repetitive and anxious behavior (oral NaBr, KBr; data not shown). Conditions: mouse, in vivo. Here is the method:
as §1
(§2) Also, we assessed the behavioral effects of chronic administration of another bromide salt, KBr.

For series [8] the following is noted: dose of KBr equivalent to 250 mg/kg NaBr; pilot experiments.
From the text: as §2

The subject of series [9] is Oprm1^−/− mice. The experiment in a line: Tail-immersion test. Format: in vivo, mouse. Conditions: 50° C., NaBr 70 mg/kg, VU0155041 1 mg/kg, alone or combined, chronic. The procedure:
as §1
Tail-immersion test. Nociceptive thresholds were assessed by immersing the tail of the mice (5 cm from the tip) successively into water baths at 48° C., 50° C. and 52° C. The latency to withdraw the tail was measured at each temperature, with a cutoff of 10 s.

Setting [10] is: Oprm1−/− mice, chronic once daily, NaBr 10-500 mg/kg (effect from 125 mg/kg) or bumetanide 0.5 and 2 mg/kg, D9.
Setting [11] is: Oprm1−/− mice, one week after cessation of chronic treatment (NaBr over 70 mg/kg, highest doses; bumetanide depending on the dose).
Where [12] appears, read: Oprm1−/− mice, chronic NaBr 10-500 mg/kg or bumetanide 0.5 and 2 mg/kg.
Setting [13] is: chronic NaBr 10-500 mg/kg or bumetanide 0.5 and 2 mg/kg.
Setting [14] is: chronic NaBr (since lowest dose, 10 mg/kg) or bumetanide 0.5 and 2 mg/kg.
[15] abbreviates: Oprm1−/− mice, NaBr 70 mg/kg, VU0155041 1 mg/kg, alone or combined, once daily, chronic.

In the case of `NC[C@H](CC(=O)O)c1ccc(Cl)cc1` [arbaclofen], the “autistic-like behaviors / phenotype in animal models” value in the series on rodent models of ASD was “improve autistic-like behaviors in animal models”.
Turning to `CCCCNc1cc(C(=O)O)cc(S(N)(=O)=O)c1Oc1ccccc1` [bumetanide], in the series with Oprm1^−/− mice [1] (Oprm1−/− mice), the latency to eat entry is given as “had no detectable effect on either latency to eat”. In addition, the food intake entry with Oprm1^−/− mice [1] (both mouse lines) is recorded as “had no detectable effect”. The “social interaction in wild-type controls” value in the series on Oprm1^−/− mice [2] (chronic once daily, NaBr 10-500 mg/kg or bumetanide 0.5 and 2 mg/kg) is on record as “showed deleterious effects on social interaction parameters in WT controls”. Moreover, the “social interaction in wild-type controls” value with Oprm1^−/− mice [2] (chronic once daily, NaBr 10-500 mg/kg or bumetanide 0.5 and 2 mg/kg, listed as Bumetanide) was “at the highest dose, it impaired social interaction in wild-type controls”. Besides, in the series on Oprm1^−/− mice [2] (Oprm1−/− mice, chronic once daily i.p., NaBr 10-500 mg/kg or bumetanide 0.5 and 2 mg/kg, D9), the social interaction deficit entry is listed as “had only partial effects”. Besides, the “number of nose contacts” value with Oprm1^−/− mice [2] (Oprm1−/− mice, chronic once daily, NaBr 10-500 mg/kg (effect from 125 mg/kg) or bumetanide 0.5 and 2 mg/kg (effect at low dose), D9) is listed as “increased the number of nose contacts”. In addition, in the series with Oprm1^−/− mice [2] (setting [10]), the “mean duration of nose contacts” value was “failed to increase significantly the duration of nose contacts”, the “mean duration of paw contacts” value was “failed to increase significantly” and the “number of paw contacts” value was “failed to increase significantly”. The “grooming after social contact” value in the series with Oprm1^−/− mice [2] (Oprm1−/− mice, chronic once daily, NaBr 10-500 mg/kg or bumetanide 0.5 and 2 mg/kg, D9) is “suppressed grooming episodes, notably those occurring after social contact, since the lowest dose tested”. Further, in the series with Oprm1^−/− mice [2] (setting [11]), the “duration of nose contacts” value was “beneficial effects of bumetanide were still detectable” and the “grooming after social contact” value was “still detectable”. In addition, the “number of following episodes” value in the series on Oprm1^−/− mice [2] (chronic once daily, NaBr 10-500 mg/kg (both mouse lines) or bumetanide (at low dose), D9) is listed as “increased”. For the same molecule, the “autistic-like behaviors / phenotype in animal models” value in the series on rodent models of ASD is “improve autistic-like phenotype in rodent models of ASD”. Besides, in the series on Oprm1^−/− mice [3] (setting [12]), the “number of head shakes” value is “suppressed circling and head shakes in mutant mice”; the stereotypic circling episodes result is “suppressed circling and head shakes in mutant mice”. In the series on Oprm1^−/− mice [3] (both mouse lines (Oprm1−/− and Oprm1+/+), chronic NaBr or bumetanide), the “number of rearing episodes” value is “reduced the number of rearing episodes in both mouse lines”. Further, in the series with patients, the “autistic behavior in small cohorts of patients” value is “relieve autistic behavior in small cohorts of patients” and the “clinical benefit in a larger clinical trial” value is given as “failed to be confirmed in a larger clinical trial, except for a reduction of repetitive behavior”. For the same molecule, in the series on Oprm1^−/− mice [4] (setting [13]), the social preference ratio result is listed as “significant but partial recovery of social preference ratio”. In the series on Oprm1^−/− mice [4] (setting [14]), the “duration of nose contacts with the mouse versus the toy” value is listed as “dose-dependently increased the duration of nose contacts with the mouse, but failed to reduce the duration of nose contacts with the toy” and the “number of nose contacts with the mouse versus the toy” value is “at the lowest dose restored a preference for making more frequent nose contacts with the mouse over the toy”. Moreover, in the series with Oprm1^−/− mice [5], the excessive marble burying entry is on record as “failed to suppress excessive marble burying in Oprm1^−/− mice”. Further, the “perseverative same arm returns” value with Oprm1^−/− mice [6] (setting [13]) is listed as “globally failed to suppress those”.
In the case of `[Br-].[K+]` [KBr, potassium bromide], in the series on Oprm1^−/− mice [7], the “social, repetitive and anxious behavior, compared with NaBr treatment” value is “fully replicated, if not exceeded, by KBr”. The toxicity entry in series [8] is recorded as “toxic”.
With `O=C(Nc1cc(Cl)cc(Cl)c1)C1CCCC[C@H]1C(=O)O` (stereo partly shown) [VU0155041], in the series on Oprm1^−/− mice [2] (setting [15]), the “duration of nose contacts” value is on record as “partially rescued the duration of their nose contacts” and the “grooming episodes after social contact” value was “suppressed grooming episodes after a social contact”. Further, the “effect in the social interaction test, pilot experiment” value in the series on Oprm1^−/− mice [2] (liminal dose of VU0155041 (1 mg/kg i.p.)) was “no detectable effect in the social interaction test”. Also, the “frequency of nose contacts with the mouse versus the toy” value in the series on Oprm1^−/− mice [4] (NaBr 70 mg/kg or VU0155041 1 mg/kg, once daily, chronic) was “sufficient to restore more frequent nose contacts with the mouse versus the toy”. The “duration of nose contacts with the mouse versus the toy” value with Oprm1^−/− mice [4] (NaBr 70 mg/kg, VU0155041 1 mg/kg, alone or combined, once daily, chronic) was “increased the duration of nose contacts with the mouse to that of the toy”. Also, the “perseverative same arm returns” value with Oprm1^−/− mice [6] (chronic VU0155041 1 mg/kg) was “sufficient to suppress perseverative same arm returns”. Also, the “flicking latency (nociceptive threshold)” value in the series on Oprm1^−/− mice [9] is given as “ineffective”.
